This note sets out measurements from patent EP4741390A1, “BIARYL RING COMPOUND, INTERMEDIATE THEREOF, PREPARATION METHOD THEREFOR AND USE THEREOF” (Hangzhou Synrx Therapeutics Biomedical Technology Co., Ltd., priority 2023, dated 2025).

Like-named read-outs stand apart in the source and are kept apart here.

For test [1], the target named is helicase domain of the Pol θ protein (Homo sapiens, UniProt O75417). The format is biochemical.
Experimental: Biochemical Activity Assay (ADP Glo Assay) of Pol θ Inhibitor
The specific assay method was as follows: • 1) The helicase domain of the Pol θ protein was purified by an insect system, to obtain the protein with a purity of >90%. ssDNA (5'-[sequence]-3', Hangzhou Yocon Biotechnology Co., Ltd.) was ordered as the substrate for the Pol θ protein; and a reaction buffer containing 10 mM DTT (Dithiothreitol), 20 mM MgCl2 and Tris-HCl pH 7.5 was prepared. • 2) The 2x ssDNA-Pol θ premix was prepared; the reaction was conducted in a 384-well plate; a control group with only buffer is set, and the premix was added to the rest of the groups.
Test [2] has as its system DLD1 BRCA2-/- cells. As to the kind of experiment: Cell viability assay (CTG assay), DLD1 BRCA2-/- cells. The following applies: Homo sapiens, DLD-1, 240 h; CellTiter Glo, read on Day 10, initial concentration 30 µM. The format is cell-based. The method, then:
(§1) 2. Cell Viability Assay of Pol θ Inhibitor
(§2) The cell viability assay, i.e., the commonly used CTG assay, was conducted for the efficacy of the inhibitor in vitro using the CellTiter Glo reagent (Promega, G7573).
On the technique in general: In ATP-based viability assays light output follows the ATP content of the culture.

The subject of test [3] is DLD1 wild type. As to the kind of experiment: Cell viability assay (CTG assay), DLD1 wild type cells. In kind it is cell-based. The following applies: Homo sapiens, DLD-1, 240 h; CellTiter Glo, read on Day 10, initial concentration 30 µM. The method, then:
as §1, §2

The mark [4] stands for this setting: ATPase activity, ADP-Glo, ssDNA substrate, 60 min at room temperature, initial concentration 10 µM, read-out: Biochemical experiment IC50.

Sequence of helicase domain of the Pol θ protein (O75417 102-554 limits assumed): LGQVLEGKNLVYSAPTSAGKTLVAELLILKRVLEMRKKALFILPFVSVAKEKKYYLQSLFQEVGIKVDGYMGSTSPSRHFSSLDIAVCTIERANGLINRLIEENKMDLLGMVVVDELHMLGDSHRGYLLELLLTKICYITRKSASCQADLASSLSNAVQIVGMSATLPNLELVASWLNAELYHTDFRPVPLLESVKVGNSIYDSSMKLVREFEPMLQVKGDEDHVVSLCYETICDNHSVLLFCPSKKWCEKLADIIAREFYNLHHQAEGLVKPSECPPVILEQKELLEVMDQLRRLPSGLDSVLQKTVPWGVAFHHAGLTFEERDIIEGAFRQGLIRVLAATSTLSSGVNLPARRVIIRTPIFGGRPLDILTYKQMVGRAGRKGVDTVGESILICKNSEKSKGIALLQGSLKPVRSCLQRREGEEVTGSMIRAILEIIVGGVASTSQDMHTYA

Broadly, the IC50 is the concentration that inhibits the measured activity by half. Regarding `COc1cnc(C(F)F)cc1-c1cc(-n2cccc(F)c2=O)ncc1C(=O)Nc1nc(Cl)ns1` [Example 20, N-(3-chloro-1,2,4-thiadiazol-5-yl)-2"-(difluoromethyl)-3-fluoro-5"-methoxy-2-oxo-2H-[1,2':4',4"-terpyridine]-5'-carboxamide], the half-inhibitory concentration (IC50) is 8.31 nM in test [1] (setting [4]), 22.4 nM in test [2] and above 5000 nM in test [3].

For `COc1cnc(Cl)cc1-c1cc(-n2cccc(F)c2=O)ncc1C(=O)Nc1nc(C2CC2)ns1` [Example 21, 2"-chloro-N-(3-cyclopropyl-1,2,4-thiadiazol-5-yl)-3-fluoro-5"-methoxy-2-oxo-2H-[1,2':4',4"-terpyridine]-5'-carboxamide], the IC50 in test [1] (setting [4]) is 8.57 nM; in test [2] it was 7.64 nM; in test [3], above 5000 nM.

Take `COc1cnc(C(F)F)cc1-c1cc(-n2cccc(F)c2=O)ncc1C(=O)Nc1nc(-c2c(C)noc2C)ns1` [Example 22, 2"-(difluoromethyl)-N-(3-(3,5-dimethylisoxazol-4-yl)-1,2,4-thiadiazol-5-yl)-3-fluoro-5"-methoxy-2-oxo-2H-[1,2':4',4"-terpyridine]-5'-carboxamide]: the figures for the IC50 in test [1] (setting [4]), in test [2] and in test [3] were 3.41 nM, 5.01 nM and above 5000 nM, respectively.

On to `COc1cnc(C(F)F)cc1-c1cc(-n2cccc(F)c2=O)ncc1C(=O)Nc1nc(-c2ccc(Cl)cc2)ns1` [Example 23], for which the results for the half-maximal inhibitory concentration (IC50) in test [1], in test [2] and in test [3] were 170 nM, 185 nM and above 50000 nM, respectively.

As for `COc1cnc(C(F)F)cc1-c1cc(-n2cccc(F)c2=O)ncc1C(=O)Nc1nc(N2CCOCC2)ns1` [Example 24], the concentration for half-maximal inhibition (IC50) in test [1] is 20.3 nM; in test [2], 15.3 nM; in test [3] it was above 5000 nM.

In the case of `COc1cnc(C(F)F)cc1-c1cc(-n2cccc(F)c2=O)ncc1C(=O)Nc1nc(N2CC3(COC3)C2)ns1` [Example 25, N-(3-(2-oxa-6-azaspiro[3.3]heptan-6-yl)-1,2,4-thiadiazol-5-yl)-2"-(difluoromethyl)-3-fluoro-5"-methoxy-2-oxo-2H-[1,2':4',4"-bipyridin]-5'-carboxamide], the IC50 in test [1] is 42.3 nM; in test [2], 242 nM; in test [3], above 5000 nM.

Consider `COc1cnc(Cl)cc1-c1cc(-n2cccc(F)c2=O)ncc1C(=O)Nc1nc(-c2c(C)cnn2C)ns1` [Example 26, 2"-chloro-N-(3-(1,4-dimethyl-1H-pyrazol-5-yl)-1,2,4-thiadiazol-5-yl)-3-fluoro-5"-methoxy-2-oxo-2H-[1,2':4',4"-terpyridin]-5'-carboxamide], for which the IC50 in test [1] (setting [4]) was 2.29 nM; in test [2], 0.82 nM; in test [3] it was above 5000 nM.

Take `COc1cnc(C(F)F)cc1-c1cc(-n2cccc(F)c2=O)ncc1C(=O)Nc1nc(N2CC3CC3C2)ns1` (stereo not drawn) [Example 28, N-(3-(3-azabicyclo[3,1,0]hex-3-yl)-1,2,4-thiadiazol-5-yl)-2"-(difluoromethyl)-3-fluoro-5"-methoxy-2-oxo-2H-[1,2':4',4"-terpyridin]-5'-carboxamide]: the values for the IC50 in test [1] (setting [4]), in test [2] and in test [3] were 11 nM, 24.2 nM and above 5000 nM, respectively.

As for `COc1cnc(C(F)F)cc1-c1cc(-n2cccc(F)c2=O)ncc1C(=O)Nc1nc(-c2c(C)ncn2C)ns1` [Example 32, 2"-(difluoromethyl)-N-(3-(1,4-dimethyl-1H-imidazol-5-yl)-1,2,4-thiadiazol-5-yl)-3-fluoro-5"-methoxy-2-oxo-2H-[1,2':4',4"-terpyridin]-5'-carboxamide], the IC50 in test [1] (setting [4]) was 6.11 nM; in test [2], 13.1 nM; in test [3] it was above 5000 nM.

On to `COc1cnc(C(F)F)cc1-c1cc(-n2cccc(F)c2=O)ncc1C(=O)Nc1nc(C2CCC2)ns1` [Example 33, N-(3-cyclobutyl-1,2,4-thiadiazol-5-yl)-2"-(difluoromethyl)-3-fluoro-5"-methoxy-2-oxo-2H-[1,2":4'4"-bipyridin]-5'-carboxamide], for which the concentration for half-maximal inhibition (IC50) in test [1] is 4.11 nM; in test [2] it was 8.57 nM; in test [3], above 5000 nM.
